Legend:
breast tumors [1] = experiment: PET imaging of ER+ breast tumors in patients; type: in vivo, human; settings: for SUV in lesion of patients responding poorly to tamoxifen therapy: 4/5 patients
breast tumors [2] = experiment: PET imaging of ER+ breast tumors in patients; type: in vivo, human
Experimental: This example describes a ligand for imaging ER (+) breast tumors by positron emission tomography (PET) or single photon emission computed tomography (SPECT).
PET imaging was performed on three breast cancer patients (age 54±3) (ER+) with a positron camera (Positron Corporation, Houston, Tex.). Each patient was positioned supine in the scanner so that the detector rings would span the entire breast cancer region. A 20-min attenuation scan was performed with a 4 mCi [^68 Ge]-ring source prior to [^18 F]FTX. After each patient received 4 mCi of {^18 F]FTX, six consecutive 20 min scans were acquired. Serial transaxial images were performed. The tomograph has a field-of-view of 42 cm on transverse and 12 cm on coronal plans. The axial resolution on the reconstructed plan is 1.2 cm. […] The SUV value is generated using a dedicated computer.

uterus and ovaries = experiment: PET imaging of pig uterus and ovaries and blood clearance in pigs; type: in vivo; settings: for Uterus/ovary uptake in PET image (in words): 1 h postinjection
Experimental: PET imaging was performed on four domestic female pigs (30 lb) with a positron camera (Positron Corporation, Houston, Tex). Each pig was supine in the scanner so that the detector rings would span the entire pelvic region. Prior to scanning, the position of the uterus and ovaries was determined by hysterosalpingography. Fifteen milliliters of radiopaque (Renografin 76 Squibb Diagnostic, New Brunswick, N.J.) was injected through the vagina into the uterus via a 5 Fr catheter with the balloon inflated by 1 ml of air. Radiographs of the pelvis in the anterior-posterior projection were taken. The location of the uterus was marked permanently on the skin of each pig for positioning in the PET camera.
A 20 min attenuation scan was performed with a 4 mCi ^68 Ge-ring source prior to tracer injection. After each pig received 10 mCi of [^18 F]FTX, […] consecutive 10 min scans were acquired. There was a 5 min wait between scans for data transfer. […] In order to examine the blood clearance profile of [^18 F]FTX, venous blood samples (0.5 ml) were collected every minute for the first ten minutes, followed by every ten minutes up to two hours. Serial transaxial images of the pelvic region were performed in order to view the uterus. The tomograph has a field-of-view of t42 cm on transverse and 12 cm on coronal planes. The axial resolution on the reconstructed plane is 1.2 cm.

[3] = Biodistribution in estradiol-primed or unprimed female Sprague-Dawley rats; type: in vivo, rat
Experimental: Four groups of rats (150-200 gm, N=4/group) were anesthetized with ketamine (10-15 mg/rat). […]. Tissue uptake of ^18 F-tracer was determined at 2 and 4 hours (h). To ascertain whether the ^18 F-tracer uptake was mediated by a receptor-process, one group of rats was given ^18 F-tracer without priming with estradiol; and another group of rats was given unlabeled estradiol (30 μg/rat) together with ^18 F-tracer. […].
The inventors first determined the in vivo tissue distribution of [^18 F-FTX] in rats. Specifically, four groups of female Sprague-Dawley rats (N=4/group, 200-250 gm; obtained from Harlan Inc., Indianapolis, Ind.) were anesthetized with ketamine (10-15 mg/rat). […]. The tissue distribution was studied at 2 hour and 4 hour intervals.

[4] = 2 h, blocked with estradiol 30 μg, listed as 18 Ftracer, 120 min
[5] = 2 h, blocked with estradiol 30 μg, listed as N,N-DIETHYL-[^18 F]FLUOROMETHYLTAMOXIFEN, 120 min
[6] = 2 h, estradiol-primed, listed as 18 Ftracer, 120 min
[7] = 2 h, not primed, listed as 18 Ftracer, 120 min
[8] = 2 h, not primed, listed as N,N-DIETHYL-[^18 F]FLUOROMETHYLTAMOXIFEN, 120 min
[9] = 4 h, estradiol-primed, listed as 18 Ftracer, 240 min

SUV in lesion of patients responding poorly to tamoxifen therapy (breast tumors [1]; listed as 18 F-tamoxifen): < 2.0 | SUV in lesion of patients responding poorly to tamoxifen therapy (breast tumors [1]; listed as [^18 f]fluorotamoxifen): less than 2.0 | SUV (breast tumors [1]; patient 1, left breast): 1.6 | SUV (breast tumors [1]; patient 1, spine): 6.2 | SUV (breast tumors [1]; patient 1, sternum): 4.2 | SUV (breast tumors [1]; patient 3, left breast): 2.6 | SUV (breast tumors [1]; patient 4, right axilla): 1.3 | SUV (breast tumors [1]; patient 5, lung): 3.3 | SUV (breast tumors [1]; patient 6, left axilla): 2.9 | SUV (breast tumors [1]; patient 7, skull): 0.9 | SUV (breast tumors [1]; patient 8, neck): 2.4 | SUV (breast tumors [1]; patient 9, scapula): 1.3 | SUV (breast tumors [1]; patient 10, spine): 6.3 | SUV (breast tumors [2]; patient 1, left axilla): 0.7 | SUV (breast tumors [2]; patient 2, mediastinum): 1.8 | SUV (breast tumors [2]; patient 3, left axilla): 2.6 | SUV (breast tumors [2]; patient 3, right axilla): 2.2 | SUV (breast tumors [2]; patient 3, right breast): 1.6 | SUV (breast tumors [2]; patient 3, spine): 3.0 | SUV of breast tumors (breast tumors [2]; three patients, 4 mCi): 2-5 | SUV in tumor of patients responding well to tamoxifen therapy (breast tumors [2]; three patients, listed as 18 F-tamoxifen): > 2.4 | SUV in tumor of patients responding well to tamoxifen therapy (breast tumors [2]; three patients, listed as [^18 F]fluorotamoxifen): more than 2.4 | Time to clearance from the blood stream (uterus and ovaries; 10 mCi i.v., pig): ≤ 10 min | Uterus/ovary uptake in PET image (in words) (uterus and ovaries; 10 mCi i.v., listed as 18 F-tamoxifen): can be blocked with DES | Target organ binding (in words) (uterus and ovaries; 30 minutes to 2 hours post-administration, pig): constant | Blood uptake [3, 4]: 0.048 % OF INJECTED DOSE/GRAM OF TIS | Bone uptake [3, 4]: 0.576 % OF INJECTED DOSE/GRAM OF TIS | Intestine uptake [3, 4]: 0.742 % OF INJECTED DOSE/GRAM OF TIS | Liver uptake [3, 4]: 4.451 % OF INJECTED DOSE/GRAM OF TIS | Muscle uptake [3, 4]: 0.145 % OF INJECTED DOSE/GRAM OF TIS | Uterus uptake [3, 4]: 0.297 % OF INJECTED DOSE/GRAM OF TIS | Blood uptake [3, 6]: 0.033 % OF INJECTED DOSE/GRAM OF TIS | Bone uptake [3, 6]: 0.653 % OF INJECTED DOSE/GRAM OF TIS | Intestine uptake [3, 6]: 0.917 % OF INJECTED DOSE/GRAM OF TIS | Kidney uptake [3, 6]: 0.742 % OF INJECTED DOSE/GRAM OF TIS | Liver uptake [3, 6]: 4.540 % OF INJECTED DOSE/GRAM OF TIS | Muscle uptake [3, 6]: 0.151 % OF INJECTED DOSE/GRAM OF TIS | Uterus uptake [3, 6]: 0.426 % OF INJECTED DOSE/GRAM OF TIS | Bone uptake ([3]; 2 h, estradiol-primed, listed as [^18 F]fluoro analogue of tamoxifen, 120 min): 0.65 % OF INJECTED DOSE/GRAM OF TIS | Blood uptake [3, 7]: 0.033 % OF INJECTED DOSE/GRAM OF TIS | Bone uptake [3, 7]: 0.644 % OF INJECTED DOSE/GRAM OF TIS | Intestine uptake [3, 7]: 0.504 % OF INJECTED DOSE/GRAM OF TIS | Kidney uptake [3, 7]: 0.530 % OF INJECTED DOSE/GRAM OF TIS | Liver uptake [3, 7]: 3.849 % OF INJECTED DOSE/GRAM OF TIS | Muscle uptake [3, 7]: 0.109 % OF INJECTED DOSE/GRAM OF TIS | Uterus uptake [3, 7]: 0.248 % OF INJECTED DOSE/GRAM OF TIS | Blood uptake [3, 9]: 0.045 % OF INJECTED DOSE/GRAM OF TIS | Bone uptake [3, 9]: 0.802 % OF INJECTED DOSE/GRAM OF TIS | Intestine uptake [3, 9]: 1.101 % OF INJECTED DOSE/GRAM OF TIS | Kidney uptake [3, 9]: 0.796 % OF INJECTED DOSE/GRAM OF TIS | Liver uptake [3, 9]: 4.205 % OF INJECTED DOSE/GRAM OF TIS | Muscle uptake [3, 9]: 0.183 % OF INJECTED DOSE/GRAM OF TIS | Uterus uptake [3, 9]: 0.400 % OF INJECTED DOSE/GRAM OF TIS | Bone uptake ([3]; 4 h, estradiol-primed, listed as [^18 F]fluoro analogue of tamoxifen, 240 min): 0.80 % OF INJECTED DOSE/GRAM OF TIS
SMILES: CCN(CC)CCOc1ccc(/C(=C(/CCC[18F])c2ccccc2)c2ccccc2)cc1 [[^18 F]FTX, (trans)[^18 F]Fluoromethyl-N,N-diethyltamoxifen]
Uterus/ovary uptake in PET image (in words) (uterus and ovaries; 10 mCi i.v.): increased uptake could be blocked after pretreatment with DES | Uterus/ovary uptake in PET image (in words) (uterus and ovaries; 10 mCi i.v., listed as 18 F-tracer): increased uptake could be blocked after pretreatment with diethylstilbestrol | Blood uptake [3, 5]: 0.048 % OF INJECTED DOSE/GRAM OF TISSUE WEIGHT | Bone uptake [3, 5]: 0.576 % OF INJECTED DOSE/GRAM OF TISSUE WEIGHT | Intestine uptake [3, 5]: 0.742 % OF INJECTED DOSE/GRAM OF TISSUE WEIGHT | Liver uptake [3, 5]: 4.451 % OF INJECTED DOSE/GRAM OF TISSUE WEIGHT | Muscle uptake [3, 5]: 0.145 % OF INJECTED DOSE/GRAM OF TISSUE WEIGHT | Uterus uptake [3, 5]: 0.297 % OF INJECTED DOSE/GRAM OF TISSUE WEIGHT | Blood uptake [3, 8]: 0.033 % OF INJECTED DOSE/GRAM OF TISSUE WEIGHT | Bone uptake [3, 8]: 0.644 % OF INJECTED DOSE/GRAM OF TISSUE WEIGHT | Intestine uptake [3, 8]: 0.504 % OF INJECTED DOSE/GRAM OF TISSUE WEIGHT | Kidney uptake [3, 8]: 0.530 % OF INJECTED DOSE/GRAM OF TISSUE WEIGHT | Liver uptake [3, 8]: 3.849 % OF INJECTED DOSE/GRAM OF TISSUE WEIGHT | Muscle uptake [3, 8]: 0.109 % OF INJECTED DOSE/GRAM OF TISSUE WEIGHT | Uterus uptake [3, 8]: 0.248 % OF INJECTED DOSE/GRAM OF TISSUE WEIGHT

From US6096874A (Board of Regents, the University of Texas System, priority 1995, dated 2000)
